# Results as given in article PMC10111413 (ACS Infectious Diseases, 2023).
# Where a SMILES comes first, the peptide text is derived from it. Bridges are numbered along the chain shown (N, C = ends). [ ]: non-standard residue; d: D form. The star is where a group is joined. ξ: configuration not given here. Hexanoyl(4ξ-Me) = CCC(C)CCC(=O)*; dOrn = NCCC[C@@H](N)C(=O)O; Orn = NCCC[C@H](N)C(=O)O; Dap = NC[C@H](N)C(=O)O
# How the values were obtained:
# [1] = tested on: E. coli ATCC 25922; format: cell-based; conditions: ATCC 25922, 18 h
# Procedure: (§1) The antibacterial activities of relacidine A (3a) and B (4a), along with diastereomers 3b and 4b–d and relacidamide (5), were assessed using a standard microbroth dilution assay to establish minimum inhibitory concentration (MIC) values against a panel of Gram-negative bacteria (Table 1). The MIC values measured for synthetic relacidine A (3a) and B (4a) agree well with those previously published.[9] […] Relacidine A (3a) and B (4a), as well as relacidamide (5), were further tested against a panel of colistin-resistant A. baumannii clinical isolates, which confirmed their ability to prevent the growth of colistin-resistant isolates (Supplemental Table S2). […] Also of interest was the finding that while relacidine B (4a) induced <1% hemolysis, a substitution of either the L-Ala or L-Ser to D-Ala or D-Ser increased hemolytic activity to 8–12%. […] The greater hydrolytic stability of relacidine B would appear to be attributable to the increased steric bulk of the Ala side chain next to the ester linkage (compared with the methylene of Gly in relacidine A), which may hinder the nucleophilic attack of water at the ester carbonyl.
# (§2) Colistin sulfate was purchased from Activate Scientific. Kanamycin monosulfate was purchased from MP Biomedicals. E. coli ATCC 25922, S. aureus USA300 (ATCC BAA1717), and K. pneumoniae ATCC 13883 belong to the American Type Culture Collection (ATCC). P. aeruginosa PAO1 was kindly provided by L.H.C. Quarles Van Ufford of Utrecht University, Utrecht, The Netherlands. E. coli ATCC 25922 MCR-1 was transfected in-house using the pGDP2-MCR1 plasmid kindly provided by Yong-Xin Li of The University of Hong Kong, Hong Kong, China. Sheep blood agar plates (ref. PB5039A) were purchased from Thermo Scientific. Tryptic soy broth (ref. 02-200-500) was purchased from Scharlab. Mueller-Hinton broth (ref. X927.1) was purchased from Carl Roth. Polypropylene 96-wells plates (ref. 3879) were purchased from Corning.
# (§3) MICs were determined according to Clinical and Standards Laboratory Institute (CLSI) guidelines. Blood agar plates were inoculated with glycerol stocks of E. coli ATCC 25922, K. pneumoniae ATCC 13883, P. aeruginosa PAO1, and S. aureus USA300. The inoculated agar plates were then incubated for 16 h at 37 °C. Individually grown colonies were subsequently used to inoculate 5 mL aliquots of tryptic soy broth (TSB) that were then incubated at 37 °C with shaking at 220 rpm. E. coli 25922 MCR-1 glycerol stock was used to inoculate 5 mL of TSB supplemented with kanamycin that was then incubated for 16 h at 37 °C with shaking at 220 rpm. The next day, the culture was diluted 100-fold in TSB supplemented with kanamycin and incubated at 37 °C with shaking at 220 rpm. In parallel, the lipopeptide antibiotic DMSO stocks to be assessed were serially diluted with Mueller Hinton broth (MHB) in polypropylene 96-well plates (50 μL in each well). Colistin sulfate stocks were dissolved in water before being diluted with MHB. Aliquots of the inoculated TSB were incubated until an OD600 of around 0.5 was reached. The bacterial suspensions were then diluted with MHB (2 × 10^5 cfu mL^–1) and added to the microplates containing the test compounds (50 μL to each well). The well plates were sealed with an adhesive membrane, and after 18 h of incubation at 37 °C with shaking at 600 rpm, the wells were visually inspected for bacterial growth. MIC values reported are based on three technical replicates and defined as the lowest concentration of the compound that prevented visible growth of bacteria.
# [2] = tested on: E. coli ATCC 25922 mcr-1; format: cell-based; conditions: CLSI microbroth dilution, Mueller Hinton broth, 18 h at 37 °C, visual read-out, three technical replicates; mcr-1 colistin resistance plasmid
# Procedure: as §1, §2, §3
# [3] = tested on: S. aureus USA300; format: cell-based; conditions: USA300, 18 h
# Procedure: as §1, §2, §3
# [4] = tested on: P. aeruginosa PAO1; format: cell-based; conditions: PAO1, 18 h
# Procedure: as §1, §2, §3
# [5] = tested on: K. pneumoniae ATCC 13883; format: cell-based; conditions: ATCC 13883, 18 h
# Procedure: as §1, §2, §3
# [6] = tested on: G. mellonella larvae; conditions: in vivo
# Description: Given the promising in vitro activity of relacidamide (5), along with its high serum stability, low hemolytic activity, and ease of synthesis, we further evaluated its efficacy in an established in vivo infection model using G. mellonella larvae. The G. mellonella infection model has gained popularity in recent years and provides a convenient method to assess the in vivo effectiveness and toxicity of novel antibiotics.[15],[16] […] The larvae were first injected with either vehicle (PBS) or A. baumannii BV94 suspension in the right second proleg. The moth larvae were then injected in the left second proleg with either PBS (untreated), colistin at 100 mg/kg or 200 mg/kg, or relacidamide (5) at 100 mg/kg or 200 mg/kg. The G. mellonella larvae were then incubated for 72 h, and their survival was assessed twice per day. Relacidamide (5) induced 50% survival after 72 h at 100 mg/kg and 70% survival at 200 mg/kg, whereas none of the larvae treated with colistin survived, and only 10% of the untreated larvae survived after 72 h.
# [7] = tested on: A. baumannii BV172; format: cell-based; conditions: BV172, 18 h
# Procedure: (§4) VIII. Antimicrobial testing
# (§5) Table S2. Minimum inhibitory concentrations (MICs) determined against panel of previously characterized colistin-resistant A. baumannii clinical isolates5
# (§6) Strain Relacidine A (3a) Relacidine B (4a) Relacidamide (5) Colistin […]
# (§7) aMIC values given in µg/ml.
# (§8) All minimum inhibitory concentrations were determined according to Clinical and Standards Laboratory Institute (CLSI) guidelines. Blood agar plates were inoculated from glycerol stocks of the different A. baumannii strains used and then incubated for 16 h at 37 °C . Individually grown colonies were subsequently used to inoculate 5 mL aliquots of TSB that were then incubated at 37 °C. In parallel, the lipopeptide antibiotics DMSO stocks to be assessed were serially diluted with cation-adjusted MHB in polypropylene 96-well plates (50 µL in each well). Colistin sulfate stocks were dissolved in water before being diluted with cation-adjusted MHB. The A. baumannii inoculated TSB aliquots were incubated until an OD600 of around 0.5 was reached. The bacterial suspensions were then diluted with cation-adjusted MHB (2 x 10^5 CFU mL-1) and added to the microplates containing the test compounds (50 µL to each well). The well-plates were sealed with an adhesive membrane and after 18 h of incubation at 37 °C visually inspected for bacterial growth. MIC values reported are based on three technical replicates and defined as the lowest concentration of the compound that prevented visible
# [8] = tested on: A. baumannii ATCC 17978; format: cell-based; conditions: ATCC 17978, 18 h
# Procedure: as §4, §5, §6, §7, §8
# [9] = tested on: A. baumannii BV94; format: cell-based; conditions: BV94, 18 h
# Procedure: as §4, §5, §6, §7, §8
# [10] = tested on: A. baumannii LAC-4; format: cell-based; conditions: LAC-4, 18 h
# Procedure: as §4, §5, §6, §7, §8
# [11] = tested on: A. baumannii HUMC1; format: cell-based; conditions: HUMC1, 18 h
# Procedure: as §4, §5, §6, §7, §8
# [12] = tested on: A. baumannii NCTC 13420; format: cell-based; conditions: NCTC 13420, 18 h
# Procedure: as §4, §5, §6, §7, §8
# [13] = tested on: A. baumannii BV95; format: cell-based; conditions: BV95, 18 h
# Procedure: as §4, §5, §6, §7, §8
# [14] = tested on: A. baumannii NCTC 13304; format: cell-based; conditions: NCTC 13304, 18 h
# Procedure: as §4, §5, §6, §7, §8
# [15] = tested on: A. baumannii BV173; format: cell-based; conditions: BV173, 18 h
# Procedure: as §4, §5, §6, §7, §8
compound,measurement,setting,value
"CCC(C)CCC(=O)N[C@H](CO)C(=O)N[C@H](Cc1ccc(O)cc1)C(=O)N[C@H](Cc1c[nH]c2ccccc12)C(=O)N[C@H](CCCN)C(=O)N[C@@H](CCCN)C(=O)NCC(=O)N[C@H](CCCN)C(=O)N[C@@H](Cc1c[nH]c2ccccc12)C(=O)N[C@H]1CNC(=O)CNC(=O)[C@H](CO)NC(=O)CNC(=O)[C@H]([C@@H](C)CC)NC1=O (stereo partly drawn) [compound 5, Relacidamide] ({Hexanoyl(4ξ-Me)}-[dS][dY][dW][dOrn][Orn]G[dOrn]W[Dap]IGSG; lactam 9-C)",MIC E. coli ATCC 25922,[1],2 to 4 µg/mL
same,MIC E. coli ATCC 25922 mcr-1,[2],2 to 4 µg/mL
same,MIC S. aureus USA300,[3],>32 µg/mL
same,MIC P. aeruginosa PAO1,[4],8 µg/mL
same,MIC K. pneumoniae ATCC 13883,[5],4 µg/mL
same,tolerability in G. mellonella larvae,[6],well tolerated up to the highest tested dose
same,MIC A. baumannii BV172,[7],16 µg/mL
same,MIC A. baumannii ATCC 17978,[8],4 µg/mL
same,MIC A. baumannii BV94,[9],8 µg/mL
same,MIC A. baumannii LAC-4,[10],8 µg/mL
same,MIC A. baumannii HUMC1,[11],8 µg/mL
same,MIC A. baumannii NCTC 13420,[12],16 µg/mL
same,MIC A. baumannii BV95,[13],8 µg/mL
same,MIC A. baumannii NCTC 13304,[14],4 µg/mL
same,MIC A. baumannii BV173,[15],16 µg/mL
